Read-outs that look alike come from different tables or passages of the source.
Target: T1, glucocorticoid receptor (GR) (Rattus norvegicus, UniProt P06536)
T1 construct: cytosol preparations that consist of the thymus homogenates of rats; from tissue; host or cells: rat thymus homogenate, cytosol
T1 sequence (P06536 1-795): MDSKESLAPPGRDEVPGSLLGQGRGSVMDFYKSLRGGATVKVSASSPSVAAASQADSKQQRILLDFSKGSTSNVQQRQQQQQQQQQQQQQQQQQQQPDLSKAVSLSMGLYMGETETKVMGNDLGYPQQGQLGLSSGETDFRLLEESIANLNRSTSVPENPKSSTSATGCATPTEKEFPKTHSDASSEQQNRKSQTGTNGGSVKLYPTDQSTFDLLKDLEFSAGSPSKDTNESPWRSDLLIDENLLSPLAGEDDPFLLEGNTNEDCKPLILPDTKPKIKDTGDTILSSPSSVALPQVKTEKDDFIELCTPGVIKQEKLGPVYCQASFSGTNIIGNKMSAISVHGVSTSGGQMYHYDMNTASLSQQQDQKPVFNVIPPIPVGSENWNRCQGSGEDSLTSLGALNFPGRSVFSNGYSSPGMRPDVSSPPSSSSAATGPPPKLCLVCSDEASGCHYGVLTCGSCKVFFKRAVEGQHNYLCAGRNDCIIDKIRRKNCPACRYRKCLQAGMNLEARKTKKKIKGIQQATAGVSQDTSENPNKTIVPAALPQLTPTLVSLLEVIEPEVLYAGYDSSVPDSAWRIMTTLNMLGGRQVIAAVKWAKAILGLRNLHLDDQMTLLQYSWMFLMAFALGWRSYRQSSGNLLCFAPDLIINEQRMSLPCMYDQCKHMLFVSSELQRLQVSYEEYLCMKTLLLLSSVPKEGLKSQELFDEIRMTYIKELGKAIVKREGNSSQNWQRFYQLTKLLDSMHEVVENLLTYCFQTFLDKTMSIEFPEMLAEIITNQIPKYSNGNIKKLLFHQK
Assay: glucocorticoid receptor (GR)-binding test, cytosol of rat thymus homogenates, [3H]-dexamethasone

[1] = 10 nM [3H]-dexamethasone, rat thymus cytosol, read-out: IC50 (GR-binding test)

SMILES | IC50 [nM] | IC50 [1] [nM]
CC(C)(CC(O)(C(=O)Nc1ccc2c(c1)COC2=O)C(F)(F)F)c1cc(F)ccc1O (centres unmarked) [i, 5-[4-(5-Fluoro-2-hydroxyphenyl)-2-hydroxy-4-methyl-2-trifluoromethyl-valeroylamino]-phthalide] | 2.8 | 
COc1cc(Br)ccc1C(C)(C)CC(O)(C(=O)Nc1ccc2c(=O)onc(C)c2c1)C(F)(F)F (centres unmarked) [iv, 6-[4-(4-bromo-2-methoxyphenyl)-2-hydroxy-4-methyl-2-trifluoromethyl-valeroylamino]-4-methyl-2,3-benzoxazin-1-one] |  | 4.9
CC(C)(CC(O)(CNc1ccc2c(c1)COC2=O)C(F)(F)F)c1cc(F)ccc1O (centres unmarked) [ii, 5-[4-(5-fluoro-2-hydroxyphenyl)-2-hydroxy-4-methyl-2-trifluoromethyl-pentylamino]-phthalide] |  | 2.3

More lines, now with the values ahead:

IC50 [nM] | IC50 [1] [nM] | SMILES
2.6 |  | Cc1noc(=O)c2ccc(NC(=O)C(O)(CC(C)(C)c3cc(F)ccc3O)C(F)(F)F)cc12 (centres unmarked) [v, 6-[4-(5-fluoro-2-hydroxyphenyl)-2-hydroxy-4-methyl-2-trifluoromethyl-valeroylamino]-4-methyl-2,3-benzoxazin-1-one]
 | 4.6 | COc1ccc(F)cc1C(C)(C)CC(O)(C(=O)Nc1ccc2c(=O)onc(C)c2c1)C(F)(F)F (centres unmarked) [iii, 6-[4-(5-fluoro-2-methoxyphenyl)-2-hydroxy-4-methyl-2-trifluoromethyl-valeroylamino]-4-methyl-2,3-benzoxazin-1-one]

Source: patent US6323199A, “Nonsteroidal anti-inflammatory agents” (Schering Aktiengesellschaft, priority 1998, dated 2001)
